According to patent US11492375B2, “Cyclic peptide immunomodulators” (Bristol-Myers Squibb Company, priority 2017, dated 2022):
Like-named read-outs stand apart in the source and are kept apart here.

Molecular target: PD-1-Ig binding to PD-L1-TVMV-His (PD-L1-His) (Homo sapiens (Human), UniProt Q9NZQ7)
Assay: PD-1/PD-L1 Homogenous Time-Resolved Fluorescence (HTRF) binding assay
Settings: PD-1-Ig/PD-L1-His binding, read-out: HTRF IC50 (μM) or Range
Source text: The ability of the macrocyclic peptides of the present disclosure to bind to PD-L1 was investigated using a PD-1/PD-L1 Homogenous Time-Resolved Fluorescence (HTRF) binding assay.
Homogenous Time-Resolved Fluorescence (HTRF) Assays of Binding of Soluble PD-1 to Soluble PD-L1. Soluble PD-1 and soluble PD-L1 refers to proteins with carboxyl-end truncations that remove the transmembrane-spanning regions and are fused to heterologous sequences, specifically the Fc portion of the human immunoglobuling G sequence (Ig) or the hexahistidine epitope tag (His). All binding studies were performed in an HTRF assay buffer consisting of dPBS supplemented with 0.1% (w/v) bovine serum albumin and 0.05% (v/v) Tween-20. For the PD-1-Ig/PD-L1-His binding assay, inhibitors were pre-incubated with PD-L1-His (10 nM final) for 15m in 4 μl of assay buffer, followed by addition of PD-1-Ig (20 nM final) in 1 μl of assay buffer and further incubation for 15 m. PD-L1 fusion proteins from either human, cynomologous macaques, mouse, or other species were used. HTRF detection was achieved using europium crypate-labeled anti-Ig monoclonal antibody (1 nM final) and allophycocyanin (APC) labeled anti-His monoclonal antibody (20 nM final). Antibodies were diluted in HTRF detection buffer and 5 μl was dispensed on top of binding reaction. The reaction was allowed to equilibrate for 30 minutes and signal (665 nm/620 nm ratio) was obtained using an EnVision fluorometer. Additional binding assays were established between PD-1-Ig/PD-L2-His (20 and 5 nM, respectively), CD8O-His/PD-L1-Ig (100 and 10 nM, respectively) and CD80-His/CTLA4-Ig (10 and 5 nM, respectively). Binding/competition studies between biotinylated Compound No. 71 and human PD-L1-His were performed as follows. Macrocyclic peptide inhibitors were pre-incubated with PD-L1-His (10 nM final) for 60 minutes in 4 μl of assay buffer followed by addition of biotinylated Compound No. 71 (0.5 nM final) in 1 μl of assay buffer. Binding was allowed to equilibrate for 30 minutes followed by addition of europium crypated labeled Streptavidin (2.5 pM final) and APC-labeled anti-His (20 nM final) in 5 μl of HTRF buffer. The reaction was allowed to equilibrate for 30 m and signal (665 nm/620 nm ratio) was obtained using an EnVision fluorometer.
Recombinant Proteins. Carboxyl-truncated human PD-1 (amino acids 25-167) with a C-terminal human Ig epitope tag [hPD-1 (25-167)-35-IG] and human PD-L1 (amino acids 18-239) with a C-terminal His epitope tag [hPD-L1(19-239)-tobacco vein mottling virus protease cleavage site (TVMV)-His] were expressed in HEK293T cells and purified sequentially by recombinant Protein A affinity chromatography and size exclusion chromatography. Human PD-L2-His (Sino Biologicals), CD80-His (Sino Biologicals), CTLA4-Ig (RnD Systems) were all obtained through commercial sources.

Chain of PD-1-Ig binding to PD-L1-TVMV-His (PD-L1-His) (Q9NZQ7 other isoform, or with tags, fused parts or gaps): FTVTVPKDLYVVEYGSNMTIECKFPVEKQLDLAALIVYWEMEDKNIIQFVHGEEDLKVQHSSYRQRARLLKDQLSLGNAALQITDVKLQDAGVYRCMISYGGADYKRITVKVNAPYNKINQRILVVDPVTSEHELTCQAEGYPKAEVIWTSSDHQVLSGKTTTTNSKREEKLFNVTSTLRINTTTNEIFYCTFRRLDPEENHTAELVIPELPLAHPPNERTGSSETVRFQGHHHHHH

| IC50 (numeric value) | IC50 (value given as range class) | SMILES |
| --- | --- | --- |
| 0.011 µM | – | C[C@@H]1NC(=O)[C@@H]2CCCC/C=C\CCCC[C@@H](C(=O)N2C)N(C)C(=O)[C@H](Cc2c[nH]c3ccccc23)NC(=O)[C@H](CO)NC(=O)[C@H](Cc2c[nH]c3ccccc23)NC(=O)[C@@H]2C[C@@H](O)CN2C(=O)[C@H](CCC(N)=O)NC(=O)[C@H](Cc2cnc[nH]2)NC(=O)[C@@H]2CCCN2C(=O)[C@H](CC(=O)O)NC(=O)[C@@H]2CNCCN2C(=O)[C@H](Cc2ccc(O)cc2)NC(=O)CSC[C@@H](C(=O)NCC(N)=O)NC1=O [Example 1115] |
| – | 0.1 to 2 µM | CC(C)C[C@@H]1NC(=O)[C@H](Cc2cnc[nH]2)NC(=O)[C@@H]2CCCN2C(=O)[C@H](CC(N)=O)NC(=O)[C@H](C)N(C)C(=O)[C@H](Cc2ccc(O)cc2)NC(=O)CSC[C@@H](C(=O)NCC(N)=O)NC(=O)[C@H](CCCNC(=N)N)NC(=O)[C@@H]2CCC/C=C\CCC[C@@H](C(=O)N2C)N(C)C(=O)[C@H](Cc2c[nH]c3ccccc23)NC(=O)[C@H](CO)NC(=O)[C@H](Cc2c[nH]c3ccccc23)NC(=O)[C@@H]2C[C@@H](O)CN2C1=O [Example 1101] |
| – | 0.1 to 2 µM | CC(C)C[C@@H]1NC(=O)[C@H](CN)NC(=O)[C@@H]2CCCN2C(=O)[C@H](CC(N)=O)NC(=O)[C@H](C)N(C)C(=O)[C@H](Cc2ccc(O)cc2)NC(=O)CSC[C@H](C(=O)NCC(N)=O)NC(=O)[C@@H](C)NC(=O)[C@H]2CCC/C=C\CCC[C@@H](C(=O)N2C)N(C)C(=O)[C@H](Cc2c[nH]c3ccccc23)NC(=O)[C@H](CO)NC(=O)[C@@H](Cc2c[nH]c3ccccc23)NC(=O)[C@@H]2C[C@@H](O)CN2C1=O [Example 1106] |
| – | 0.002 to 0.0099 µM | C[C@H]1C(=O)N[C@@H](CC(=O)O)C(=O)N2CCC[C@H]2C(=O)N[C@@H](CN)C(=O)N[C@@H](CCC(=O)O)C(=O)N2C[C@H](O)C[C@H]2C(=O)N[C@@H](Cc2c[nH]c3ccccc23)C(=O)N[C@@H](CO)C(=O)N[C@@H](Cc2csc3ccccc23)C(=O)N(C)[C@H]2CCCC/C=C\CCCC[C@@H](C(=O)N[C@@H](CN)C(=O)N[C@H](C(=O)NCC(N)=O)CSCC(=O)N[C@@H](Cc3ccc(O)cc3)C(=O)N1C)N(C)C2=O [Example 1118] |
| – | 0.01 to 0.099 µM | CN1C(=O)[C@H](Cc2cn(CC(=O)O)c3ccccc23)NC(=O)[C@H](CCN)NC(=O)[C@H](Cc2c[nH]c3ccccc23)NC(=O)[C@@H]2C[C@@H](O)CN2C(=O)[C@H](CCC(=O)O)NC(=O)[C@H](CN)NC(=O)[C@@H]2CCCN2C(=O)[C@H](CC(=O)O)NC(=O)[C@H]2CCCCN2C(=O)[C@H](Cc2ccc(O)cc2)NC(=O)CSC[C@@H](C(=O)NCC(N)=O)NC(=O)[C@H](CCC(=O)O)NC(=O)[C@@H]2Cc3ccc(cc3)OCC=CCCC[C@H]1C(=O)N2C [Example 1121] |
| 0.004 µM | – | C[C@@H]1NC(=O)[C@@H]2CCCC/C=C\CCCC[C@@H](C(=O)N2C)N(C)C(=O)[C@H](Cc2c[nH]c3ccccc23)NC(=O)[C@H](CO)NC(=O)[C@H](Cc2c[nH]c3ccccc23)NC(=O)[C@@H]2C[C@@H](O)CN2C(=O)[C@H](CCC(N)=O)NC(=O)[C@H](Cc2cnc[nH]2)NC(=O)[C@@H]2CCCN2C(=O)[C@H](CC(=O)O)NC(=O)[C@@H]2CCCCN2C(=O)[C@H](Cc2ccc(O)cc2)NC(=O)CSC[C@@H](C(=O)NCC(N)=O)NC1=O [Example 1120] |
| – | 0.01 to 0.099 µM | C[C@H]1C(=O)N[C@@H](CC(=O)O)C(=O)N2CCC[C@H]2C(=O)N[C@@H](CN)C(=O)N[C@@H](CCC(=O)O)C(=O)N2C[C@H](O)C[C@H]2C(=O)N[C@@H](Cc2c[nH]c3ccccc23)C(=O)N[C@@H](CO)C(=O)N[C@@H](Cc2c[nH]c3ccccc23)C(=O)N(C)[C@H]2CCC/C=C\CCCC[C@@H](C(=O)N[C@@H](CCC(=O)O)C(=O)N[C@H](C(=O)NCC(N)=O)CSCC(=O)N[C@@H](Cc3ccc(O)cc3)C(=O)N1C)N(C)C2=O [Example 1116] |
| – | 0.01 to 0.099 µM | CC(C)C[C@@H]1NC(=O)[C@H](Cc2cnc[nH]2)NC(=O)[C@@H]2CCCN2C(=O)[C@H](CC(N)=O)NC(=O)[C@H](C)N(C)C(=O)[C@H](Cc2ccccc2)NC(=O)CSC[C@@H](C(=O)NCC(N)=O)NC(=O)[C@H](CCCNC(=N)N)NC(=O)[C@@H]2CCCC/C=C/CCCC[C@@H](C(=O)N2C)N(C)C(=O)[C@H](Cc2c[nH]c3ccccc23)NC(=O)[C@H](CO)NC(=O)[C@H](Cc2c[nH]c3ccccc23)NC(=O)CN(C)C1=O [Example 1001] |
| – | 0.002 to 0.0099 µM | C[C@H]1C(=O)N[C@@H](CC(=O)O)C(=O)N2CCC[C@H]2C(=O)N[C@@H](CN)C(=O)N[C@@H](CCC(=O)O)C(=O)N2C[C@H](O)C[C@H]2C(=O)N[C@@H](Cc2c[nH]c3ccccc23)C(=O)N[C@@H](CO)C(=O)N[C@@H](Cc2cn(CC(=O)O)c3ccccc23)C(=O)N(C)[C@H]2CCCC/C=C\CCCC[C@@H](C(=O)N[C@@H](CCC(=O)O)C(=O)N[C@H](C(=O)NCC(N)=O)CSCC(=O)N[C@@H](Cc3ccc(O)cc3)C(=O)N1C)N(C)C2=O [Example 1117] |
| – | 0.01 to 0.099 µM | CC(C)C[C@@H]1NC(=O)[C@H](Cc2c[nH]cn2)NC(=O)[C@@H]2CCCN2C(=O)[C@H](CC(N)=O)NC(=O)[C@@H]2COCCN2C(=O)[C@H](Cc2ccc(O)cc2)NC(=O)CSC[C@H](C(=O)NCC(N)=O)NC(=O)[C@@H](C)NC(=O)[C@@H]2CCC/C=C\CCC[C@@H](C(=O)N2C)N(C)C(=O)[C@H](Cc2c[nH]c3ccccc23)NC(=O)[C@H](CO)NC(=O)[C@@H](Cc2c[nH]c3ccccc23)NC(=O)[C@@H]2C[C@@H](O)CN2C1=O [Example 1110] |
| 1.5 µM | – | CC(C)C[C@@H]1NC(=O)[C@H](CN)NC(=O)[C@@H]2CCCN2C(=O)[C@H](CC(N)=O)NC(=O)[C@H](C)N(C)C(=O)[C@H](Cc2ccc(O)cc2)NC(=O)CSC[C@H](C(=O)NCC(N)=O)NC(=O)[C@@H](C)NC(=O)[C@H]2CC/C=C\CC[C@@H](C(=O)N2C)N(C)C(=O)[C@H](Cc2c[nH]c3ccccc23)NC(=O)[C@H](CO)NC(=O)[C@@H](Cc2c[nH]c3ccccc23)NC(=O)[C@@H]2C[C@@H](O)CN2C1=O [Example 1103] |
| – | 0.002 to 0.0099 µM | C[C@@H]1NC(=O)[C@@H]2CCCC/C=C\CCCC[C@@H](C(=O)N2C)N(C)C(=O)[C@H](Cc2c[nH]c3ccccc23)NC(=O)[C@H](CO)NC(=O)[C@H](Cc2c[nH]c3ccccc23)NC(=O)[C@@H]2C[C@@H](O)CN2C(=O)[C@H](CCC(N)=O)NC(=O)[C@H](Cc2cnc[nH]2)NC(=O)[C@@H]2CCCN2C(=O)[C@H](CC(=O)O)NC(=O)[C@H](C)N(C)C(=O)[C@H](Cc2ccc(O)cc2)NC(=O)CSC[C@@H](C(=O)NCC(N)=O)NC1=O [Example 1113] |
| – | 0.002 to 0.0099 µM | C[C@@H]1NC(=O)[C@@H]2CCCC/C=C\CCCC[C@@H](C(=O)N2C)N(C)C(=O)[C@H](Cc2c[nH]c3ccccc23)NC(=O)[C@H](CO)NC(=O)[C@H](Cc2c[nH]c3ccccc23)NC(=O)[C@@H]2C[C@@H](O)CN2C(=O)[C@H](CCC(N)=O)NC(=O)[C@H](CN)NC(=O)[C@@H]2CCCN2C(=O)[C@H](CC(=O)O)NC(=O)[C@H](C)N(C)C(=O)[C@H](Cc2ccc(O)cc2)NC(=O)CSC[C@@H](C(=O)NCC(N)=O)NC1=O [Example 1112] |
| – | 0.01 to 0.099 µM | CC(C)C[C@@H]1NC(=O)[C@H](CN)NC(=O)[C@@H]2CCCN2C(=O)[C@H](CC(N)=O)NC(=O)[C@H](C)N(C)C(=O)[C@H](Cc2ccc(O)cc2)NC(=O)CSC[C@@H](C(N)=O)NC(=O)[C@H](CCCNC(=N)N)NC(=O)[C@@H]2CCCC/C=C\CCCC[C@@H](C(=O)N2C)N(C)C(=O)[C@H](Cc2c[nH]c3ccccc23)NC(=O)[C@H](CO)NC(=O)[C@H](Cc2c[nH]c3ccccc23)NC(=O)[C@@H]2C[C@@H](O)CN2C1=O [Example 1107] |
| – | 0.01 to 0.099 µM | CC(C)C[C@@H]1NC(=O)[C@H](CN)NC(=O)[C@@H]2CCCN2C(=O)[C@H](CC(N)=O)NC(=O)[C@H](C)N(C)C(=O)[C@H](Cc2ccc(O)cc2)NC(=O)CSC[C@H](C(=O)NCC(N)=O)NC(=O)[C@@H](CCCN)NC(=O)[C@H]2CCC/C=C\CCC[C@@H](C(=O)N2C)N(C)C(=O)[C@H](Cc2c[nH]c3ccccc23)NC(=O)[C@H](CO)NC(=O)[C@@H](Cc2c[nH]c3ccccc23)NC(=O)[C@@H]2C[C@@H](O)CN2C1=O [Example 1104] |
